Measured values taken from patent US5567692A, “9-[(substituted glycyl) amido)]-6-demethyl-6-deoxytetracyclines” (priority 1995, dated 1996).
Converted amounts (≈) assume the structure as drawn.

What was measured:
Assay type in all cases: cell-based
Haemophilus influenzae = assay: MIC range, recent clinical and veterinary isolates; details: 18 h, [15] isolates
Enterobacter cloacae = assay: MIC range, recent clinical and veterinary isolates; details: 18 h, read-out: MIC Range
E. coli J3272 Tet sens = assay: MIC, agar dilution; details: Escherichia coli, J3272TETSENS, 18 h
Enterococcus 12201 = assay: MIC, agar dilution; details: Enterococcus, 12201, 18 h
Clostridium difficile = assay: MIC range, recent clinical and veterinary isolates; details: Clostridioides difficile, 18 h, read-out: MIC Range
E. coli J2175 = assay: MIC, agar dilution; details: Escherichia coli, 18 h, read-out: MIC
S. aureus UBMS 88-4 = assay: MIC, agar dilution; details: Staphylococcus aureus, UBMS884, 18 h; S. aureus UBMS 88-4
[1] = tested on: S. hemolyticus AVHAH 88-3; assay: MIC, agar dilution; details: Streptococcus pyogenes, AVHAH883, 18 h
Moraxella catarrhalis = assay: MIC range, recent clinical and veterinary isolates; details: 18 h, read-out: MIC Range
[2] = tested on: Pasturella multocida (Veterinary); assay: MIC range, recent clinical and veterinary isolates; details: 18 h, [17] isolates
[3] = tested on: Ps. aeruginosa ATCC 27853; assay: MIC, agar dilution; details: Pseudomonas aeruginosa, ATCC27853, 18 h
Streptococcus pyogenes = assay: MIC range, recent clinical and veterinary isolates; details: 18 h, read-out: MIC Range
Proteus mirabilis = assay: MIC range, recent clinical and veterinary isolates; details: 18 h, read-out: MIC Range
Citrobacter freundii = assay: MIC range, recent clinical and veterinary isolates; details: 18 h, read-out: MIC Range
Proteus vulgaris = assay: MIC range, recent clinical and veterinary isolates; details: 18 h, read-out: MIC Range
Citrobacter diversus = assay: MIC range, recent clinical and veterinary isolates; details: Citrobacter koseri, 18 h, read-out: MIC Range
Pseudomonas aeruginosa = assay: MIC range, recent clinical and veterinary isolates; details: 18 h, read-out: MIC Range
S. marcescens FPOR 8733 = assay: MIC, agar dilution; details: Serratia marcescens, FPOR8733, 18 h
Clostridium perfringens = assay: microbe, parasite or virus in culture; details: [16] isolates
S. aureus SMITH (MP) = assay: MIC, agar dilution; details: Staphylococcus aureus, 18 h; S. aureus SMITH (MP)
[4] = tested on: Bacteroides fragilis group; assay: MIC range, recent clinical and veterinary isolates; details: Bacteroides fragilis, 18 h, read-out: MIC Range
[5] = tested on: Staphylococcus aureus, (methicillin-susceptible); assay: MIC range, recent clinical and veterinary isolates; details: Staphylococcus aureus, 18 h, read-out: MIC Range
Clostridium spp. = assay: MIC range, recent clinical and veterinary isolates; details: [9] isolates
Xanthamonas maltophilia = assay: MIC range, recent clinical and veterinary isolates; details: 18 h, read-out: MIC Range
Streptococcus agalactiae = assay: MIC range, recent clinical and veterinary isolates; details: 18 h, read-out: MIC Range
[6] = tested on: Bordetella bronchiseptica (Veterinary); assay: MIC range, recent clinical and veterinary isolates; details: Bordetella bronchiseptica, 18 h, read-out: MIC Range
E. coli UBMS 90-5 = assay: microbe, parasite or virus in culture; details: Escherichia coli, UBMS905, 18 h, E. coli UBMS 90-5; read-out: MIC
E. coli ATCC 25922 = assay: MIC, agar dilution; details: Escherichia coli, ATCC25922, 18 h
S. aureus NEMC 8769 = assay: MIC, agar dilution; details: Staphylococcus aureus, NEMC8769, 18 h
S. aureus UBMS 90-3 = assay: MIC, agar dilution; details: Staphylococcus aureus, UBMS903, 18 h, S. aureus UBMS 90-3
Enterococcus faecium = assay: MIC range, recent clinical and veterinary isolates; details: 18 h, read-out: MIC Range
Enterococcus faecalis = assay: MIC range, recent clinical and veterinary isolates; details: 18 h, read-out: MIC Range
Enterobacter aerogenes = assay: MIC range, recent clinical and veterinary isolates; details: Klebsiella aerogenes, 18 h, read-out: MIC Range
S. aureus ATCC 29213 = assay: MIC, agar dilution; details: Staphylococcus aureus, ATCC29213, 18 h, S. aureus ATCC 29213
Streptococcus pneumoniae = assay: MIC range, recent clinical and veterinary isolates; details: 18 h, read-out: MIC Range
Klebsiella oxytoca = assay: MIC range, recent clinical and veterinary isolates; details: 18 h, read-out: MIC Range

## CN(C)[C@@H]1C(O)=C(C(N)=O)C(=O)[C@@]2(O)C(O)=C3C(=O)c4c(O)cccc4[C@@](C)(O)[C@H]3C[C@@H]12 [T, Tetracycline]
Haemophilus influenzae
  MIC: 1 to 32 µg/mL (≈ 2.25 to 72 µM)
Enterobacter cloacae
  MIC: 0.5 to 2 µg/mL (≈ 1.13 to 4.5 µM)
E. coli J3272 Tet sens
  MIC: 1 µg/mL (≈ 2.25 µM)
Enterococcus 12201
  MIC: 32 µg/mL (≈ 72 µM)
Clostridium difficile
  MIC: 0.12 to 32 µg/mL (≈ 0.27 to 72 µM)
E. coli J2175
  MIC: 1 µg/mL (≈ 2.25 µM)
S. aureus UBMS 88-4
  MIC: 0.12 µg/mL (≈ 0.27 µM)
[1]
  MIC: 0.5 µg/mL (≈ 1.13 µM)
Moraxella catarrhalis
  MIC: 0.06 to 0.5 µg/mL (≈ 0.135 to 1.13 µM)
[2]
  MIC: 0.06 to 16 µg/mL (≈ 0.135 to 36 µM)
[3]
  MIC: 8 µg/mL (≈ 18 µM)
Streptococcus pyogenes
  MIC: 0.12 to 16 µg/mL (≈ 0.27 to 36 µM)
Proteus mirabilis
  MIC: 0.5 to 64 µg/mL (≈ 1.13 to 144 µM)
Citrobacter freundii
  MIC: 0.5 to 16 µg/mL (≈ 1.13 to 36 µM)
Proteus vulgaris
  MIC: 0.25 to 64 µg/mL (≈ 0.563 to 144 µM)
Citrobacter diversus
  MIC: 0.5 to 4 µg/mL (≈ 1.13 to 9 µM)
Pseudomonas aeruginosa
  MIC: 2 to 32 µg/mL (≈ 4.5 to 72 µM)
S. marcescens FPOR 8733
  MIC: > 32 µg/mL
Clostridium perfringens
  MIC Range: 0.015 to 16 µg/mL
S. aureus SMITH (MP)
  MIC: 0.12 µg/mL (≈ 0.27 µM)
[4]
  MIC: 0.25 to 32 µg/mL (≈ 0.563 to 72 µM)
[5]
  MIC: 0.12 to 1 µg/mL (≈ 0.27 to 2.25 µM)
Clostridium spp.
  MIC Range: 0.015 to 64 µg/mL
Xanthamonas maltophilia
  MIC: 8 to 16 µg/mL (≈ 18 to 36 µM)
Streptococcus agalactiae
  MIC: 0.25 to 64 µg/mL (≈ 0.563 to 144 µM)
[6]
  MIC: 0.12 to 0.25 µg/mL (≈ 0.27 to 0.563 µM)
E. coli UBMS 90-5
  MIC: 0.5 µg/mL (≈ 1.13 µM)
E. coli ATCC 25922
  MIC: 0.5 µg/mL (≈ 1.13 µM)
S. aureus NEMC 8769
  MIC: 0.06 µg/mL (≈ 0.135 µM)
S. aureus UBMS 90-3
  MIC: 0.12 µg/mL (≈ 0.27 µM)
Enterococcus faecium
  MIC: 0.12 to 64 µg/mL (≈ 0.27 to 144 µM)
Enterococcus faecalis
  MIC: 0.12 to 64 µg/mL (≈ 0.27 to 144 µM)
Enterobacter aerogenes
  MIC: 0.5 to 1 µg/mL (≈ 1.13 to 2.25 µM)
S. aureus ATCC 29213
  MIC: < 0.015 µg/mL
Streptococcus pneumoniae
  MIC: 0.12 to 2 µg/mL (≈ 0.27 to 4.5 µM)
Klebsiella oxytoca
  MIC: 0.5 to 1 µg/mL (≈ 1.13 to 2.25 µM)
